Assay results taken from patent US4593090A, “Novel nitrosourea compounds, method for preparing same, and pharmaceutical composition containing same” (Gogo Kimura, priority 1981, dated 1986).
Like-named read-outs stand apart in the source and are kept apart here.

Key:
Leukemia L1210 [1] = assay: Activity against Leukemia L1210, oral, increase in life span of mice; assay type: in vivo, female mice (BDF1 family); conditions: for ED (maximum ILS) / ED30: Mus musculus, L1210, oral once a day for 5 successive days; for ED (maximum ILS): daily dosage giving maximum increase of life span, read-out: O.D. (optimum dosage); for ED30: daily dosage increasing average survival days by 30%, read-out: ILS30; for Survivors after 60 days / Max. ILS % / Therapeutic ratio TR: oral; for Survivors after 60 days: 6-membered group; for Max. ILS %: 60-day observation, versus control; for Therapeutic ratio TR: O.D./ILS30
Method: Tests were conducted in accordance with the method for measuring antitumor activity of National Cancer Center Tokyo (A, Hoshi et al, Farumashia 9 464 (1973)). Test compounds were each intraperitoneally (referred to as ip) or orally (referred to as op) administered once a day for 5 successive days to a 6-membered group of femal mice (BDF1 family, each weighing 20 to 23 g) 24 hours after 1×10^5 cells of Leukemia L1210 have been implantated into the abdominal cavities of the mice, and the effect was evaluated by comparing the survival days of treated groups with those of an untreated group of mice (control group) in 60-day observation. An increase percentage of life span (ILS%) was calculated from said average survival days compared with those of the control group. Further, therapeutic ratio (O.D./ILD30, referred to as T.R.) of each tested compound was calculated from the daily dosage of the compound necessary to increase said average survival days by 30% as compared with the control group (this dosage is referred to as ILS 30) and the daily dosage giving a maximum increase of life span to mice implantated with L1210 cells, namely an optimum dosage (referred to as O.D.). The results of five successive days intraperitoneal administrations of test compounds were shown in Tables I to III, and those of five successive oral administrations in Table IV.

Leukemia L1210 [2] = assay: Activity against Leukemia L1210, intraperitoneal, increase in life span of mice; assay type: in vivo, female mice (BDF1 family); conditions: for ED (maximum ILS) / ED30: Mus musculus, L1210, ip, ip once a day for 5 successive days; for ED (maximum ILS): daily dosage giving maximum increase of life span, read-out: O.D. (optimum dosage); for ED30: daily dosage increasing average survival days by 30%, read-out: ILS30; for Survivors after 60 days / Max. ILS % / Therapeutic ratio TR: ip; for Survivors after 60 days: 6-membered group; for Max. ILS %: 60-day observation, versus control; for Therapeutic ratio TR: O.D./ILS30
How it was run: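 Dosing started 24 h after ip implantation of 1×10^5 L1210 cells into groups of 6 female BDF1 mice, by ip or oral route daily for 5 consecutive days. Survival was followed for 60 days; increase in life span was scored against untreated mice, with therapeutic ratio from optimum dose over ILS30 dose.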

[3] = Acute toxicity (LD50, Behrens-Karber method); assay type: in vivo, ICR mice; conditions: mouse, in vivo, ip, mortality during 30 days
Method: Test compounds, dissolved or suspended in 0.5% aqueous CMC, were each intraperitoneally administered to ICR mice in a dose of 0.1 ml per 10 g body weight. LD50 (mg/kg) value of each test compound was calculated from the mortality of mice during 30 days by the Behrens-Karber method.

Ehrlich acites carcinoma = assay: Growth-inhibiting effect against Ehrlich acites carcinoma; assay type: in vivo, male mice; conditions: Mus musculus, Ehrlich, 120 h, 5 days; for response vs control in vivo at 25 mg/kg: 25 mg/kg/day ip; for response vs control in vivo at 100 mg/kg: 100 mg/kg/day ip; for response vs control in vivo at 50 mg/kg: 50 mg/kg/day ip; for response vs control in vivo at 200 mg/kg: 200 mg/kg/day ip
Method: Ehrlich acites carcinoma (1×10^7 cells) was implantated into the abdominal cavities of a 6-membered group of male mice. Test compounds (solutions or suspensions in 1% Nikohl HCO-60) were each intraperioneally administered once a day 5 successive days to the mice 24 hrs. after the implantation. Total packed cell volumes [TPCV, namely, total packed volumes of Acites carcinoma] were determined 7 days after the implantation to calculate growth ratio of tumor [T/C%; T: packed volume of Acites carcinoma in treated groups, C: packed volume of Acites carcinoma in an untreated group]. Acitivity is represented by - when T/C% is 100-66, by + when T/C% 65-41, by ++ when T/C% 40-11, and by +++ when T/C% 10-0.

SMILES | ED (maximum ILS) (Leukemia L1210 [1]) [mg/kg] | ED30 (Leukemia L1210 [1]) [mg/kg] | Survivors after 60 days (Leukemia L1210 [1]) | Max. ILS % (Leukemia L1210 [1]) [%] | Therapeutic ratio TR (Leukemia L1210 [1]) | ED (maximum ILS) (Leukemia L1210 [2]) [mg/kg] | ED30 (Leukemia L1210 [2]) [mg/kg] | Survivors after 60 days (Leukemia L1210 [2]) | Max. ILS % (Leukemia L1210 [2]) [%] | Therapeutic ratio TR (Leukemia L1210 [2]) | LD50 at 720 h [3] [mg/kg] | response vs control in vivo at 25 mg/kg (Ehrlich acites carcinoma; read-out: Activity) [%] | response vs control in vivo at 25 mg/kg (Ehrlich acites carcinoma; read-out: T/C %) [%] | response vs control in vivo at 100 mg/kg (Ehrlich acites carcinoma; read-out: Activity) [%] | response vs control in vivo at 100 mg/kg (Ehrlich acites carcinoma; read-out: T/C %) [%] | response vs control in vivo at 50 mg/kg (Ehrlich acites carcinoma; read-out: Activity) [%] | response vs control in vivo at 50 mg/kg (Ehrlich acites carcinoma; read-out: T/C %) [%] | response vs control in vivo at 200 mg/kg (Ehrlich acites carcinoma; read-out: Activity) [%] | response vs control in vivo at 200 mg/kg (Ehrlich acites carcinoma; read-out: T/C %) [%]
COCC(C)N(C[C@H]1O[C@H](OC2CCCCC2)[C@@H](O)[C@@H](O)[C@H]1O)C(=O)N(CCCl)N=O (stereo partly drawn) [Compound 145, 3-(1-methyl-2-methoxyethyl)-3-(cyclohexyl α-D-talopyranose-6-yl)-1-(2-chloroethyl)-1-nitrosourea] | 200 | 10.9 | 4/6 | > 450 | 18.3 | 170 | 2.91 | 6/6 | > 700 | 58.4 | 580 | – | – | – | – | – | – | – | –
COC(C)CCO[C@H]1O[C@H](CN(C(=O)N(CCCl)N=O)C(C)(C)C)[C@@H](O)[C@H](O)[C@H]1O (stereo partly drawn) [Compound 198, 3-tert-butyl-3-(3-methoxy-n-butyl α-D-glucopyranose-6-yl)-1-(2-chloroethyl)-1-ntirosourea] | 220 | 9.69 | 5/6 | > 640 | 22.7 | 180 | 2.76 | 6/6 | > 700 | 65.3 | 570 | – | – | – | – | – | – | – | –
COCCN(C(=O)N(CCCl)N=O)C1C(O)C(CO)OC(OC2CCCCC2)C1O [Compound 89, 3-(2-methoxyethyl)-3-(cyclohexyl α-D-glucopyranose-3-yl)-1-(2-chloroethyl)-1-nitrosourea] | 210 | 12.5 | 4/6 | > 450 | 16.8 | 170 | 2.66 | 6/6 | > 700 | 63.9 | 690 | – | – | – | – | – | – | – | –
CCOCCO[C@H]1O[C@H](CO)[C@@H](O)[C@H](O)[C@H]1N(CCC(C)(C)C)C(=O)N(CCCl)N=O [Compound 192, 3-(3,3-dimethyl-n-butyl)-3-(2-ethoxyethyl α-D-glucopyranose-2-yl)-1-(2-chloroethyl)-1-nitrosourea] | 200 | 9.85 | 5/6 | > 625 | 20.3 | 160 | 2.74 | 6/6 | > 700 | 58.4 | 515 | – | – | – | – | – | – | – | –
COCCOCCO[C@H]1O[C@H](CN(C(=O)N(CCCl)N=O)C(C)(C)C)[C@@H](O)[C@H](O)[C@H]1O [Compound 197] | 200 | 9.26 | 5/6 | > 625 | 21.6 | 160 | 2.7 | 6/6 | > 700 | 59.2 | 530 | – | – | – | – | – | – | – | –
CCOCCN(C(=O)N(CCCl)N=O)[C@H]1[C@@H](OCC(C)C)O[C@H](CO)[C@H](O)[C@@H]1O [Compound 123, 3-(2-ethoxyethyl)-3-(isobutyl α-D-galactopyranose-2-yl)-1-(2-chloroethyl)-1-nitrosourea] | 240 | 13.2 | 3/6 | > 360 | 18.2 | 200 | 4.98 | 3/6 | > 365 | 40.2 | 730 | – | – | – | – | – | – | – | –
COC(C)CN(C(=O)N(CCCl)N=O)[C@@H]1[C@@H](OCC(C)C)OC[C@@H](O)[C@H]1O (stereo partly drawn) [Compound 159, 3-(2-methoxy-n-propyl)-3-(isobutyl α-D-arabinopyranose-2-yl)-1-(2-chloroethyl)-1-nitrosourea] | 180 | 10.9 | 5/6 | > 625 | 16.5 | 160 | 2.61 | 6/6 | > 700 | 61.3 | 520 | – | – | – | – | – | – | – | –
CCC(C)O[C@H]1O[C@H](CN(C(=O)N(CCCl)N=O)C(C)CO)[C@@H](O)[C@H](O)[C@H]1O (stereo partly drawn) [Compound 20, 3-(2-hydroxy-1-methylethyl)-3-(sec-butyl α-D-glucopyranose-6-yl)-1-(2-chloroethyl)-1-nitrosourea] | – | – | – | – | – | 170 | 3.92 | 4/6 | > 430 | 43.4 | 560 | 0 to 10 | 0 | 0 to 10 | 0 | – | – | – | –
CCOCCN(C[C@H]1O[C@H](OCC(C)C)[C@H](O)[C@@H](O)[C@H]1O)C(=O)N(CCCl)N=O [Compound 109, 3-(2-ethoxyethyl)-3-(isobutyl α-D-galactopyranose-6-yl)-1-(2-chloroethyl)-1-nitrosourea] | – | – | – | – | – | 200 | 3.74 | 4/6 | > 430 | 53.5 | 655 | 0 to 10 | 0 | 0 to 10 | 0 | – | – | – | –
CCCCO[C@H]1O[C@H](CN(C)C(=O)N(CCCl)N=O)[C@H](O)[C@H](O)[C@H]1O [Compound 105, 3-methyl-3-(n-butyl α-D-galactopyranose-6-yl)-1-(2-chloroethyl)-1-nitrosourea] | – | – | – | – | – | 130 | 3.59 | 3/6 | > 320 | 36.2 | 320 | – | – | – | – | 0 to 10 | 5.7 | 0 to 10 | 0
